Source: patent publication EP0623592B1, “Peptide analogs as irreversible interleukin-1beta protease inhibitors” (VERTEX PHARMACEUTICALS INCORPORATED, priority 1993, dated 1994)

What follows are compounds tested against T1, IL-1β protease (Homo sapiens, UniProt P29466) (assay: IL-1β protease inhibition assay (HPLC readout of TRITC-AYVHDAPVRS-NH2 substrate cleavage)). Settings: partially purified IL-1β protease; 15 minutes preincubation with inhibitor at 37°C; substrate 67 µM; 60 minutes at 37°C.
T1 construct: Partially purified IL-1β protease is stored at -80°C
T1 sequence (P29466 120-297 limits assumed): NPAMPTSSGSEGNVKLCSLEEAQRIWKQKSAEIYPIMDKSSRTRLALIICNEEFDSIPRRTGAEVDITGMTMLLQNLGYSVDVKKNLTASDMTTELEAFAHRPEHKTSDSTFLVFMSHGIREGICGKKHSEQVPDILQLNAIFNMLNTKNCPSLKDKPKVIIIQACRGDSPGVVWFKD
T1 sequence (P29466 317-404 limits assumed): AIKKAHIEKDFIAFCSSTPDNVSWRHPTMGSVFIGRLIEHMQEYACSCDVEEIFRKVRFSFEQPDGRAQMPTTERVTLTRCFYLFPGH
Type: biochemical
Experimental: Compounds of the present invention were tested for IL-1β protease inhibition activity according to the following protocol: Partially purified IL-1β protease is stored at -80°C, thawed on ice, and preincubated for 10 minutes at 37°C with 2.5 mM dithiothreitol in a buffer solution containing 10 mM Tris-HCI (pH 8.0) and 25% (v/w) glycerol. Inhibitors are prepared as stock solutions in dimethyl sulfoxide (DMSO). The protease is preincubated with inhibitor in a volume of 20 µl in a 1.5 ml polypropylene microcentrifuge tube for 15 minutes at 37°C. The volume of compound added to the assay is adjusted to yield a DMSO concentration in the preincubation of <15% (v/v). The enzyme assay is then initiated by the addition of substrate (TRITC-AYVHDAPVRS-NH2) to yield a final concentration of 67 µM in a final volume of 30 µl. The reactions are carried out for 60 minutes at 37°C in the dark and are terminated by the addition of 10 µl of 10% trifluoroacetic acid (TFA). Following the addition of 115 µl of 0.1% TFA, the samples are analyzed by high pressure liquid chromatography using a reverse phase (C18) column and elution with an acetonitrile/water/TFA gradient. Substrate and product are monitored by their absorbance at 550 nm and elute at 4.2 and 5.2 minutes, respectively.

Compound | IC50 [µM]
O=C(O)C[C@H](NC(=O)OCc1ccccc1)C(=O)COC(=O)c1c(C(F)(F)F)cccc1C(F)(F)F [Example 40, N-Benzyloxycarbonyl-L-aspartic acid 2,6-ditrifluoromethyl benzoyloxymethyl ketone] | 0.1
COC(=O)N[C@@H](C)C(=O)N[C@@H](CC(=O)O)C(=O)COC(=O)c1c(Cl)cccc1Cl [Example 54, N-Methoxycarbonyl-L-alanine-L-aspartic acid 2,6-dichlorobenzoyloxymethyl ketone] | 0.06
COC(=O)N[C@@H](Cc1ccccc1)C(=O)N[C@@H](CC(=O)O)C(=O)COC(=O)c1c(Cl)cccc1Cl [Example 57, N-Methoxycarbonyl-L-phenylalanine-L-aspartic acid 2,6-dichlorobenzoyloxymethyl ketone] | 0.07
COC(=O)N[C@@H](CC(=O)O)C(=O)COC(=O)c1c(Cl)cccc1Cl [Example 67, N-Methoxycarbonyl-L-aspartic acid 2,6-dichlorobenzoyloxymethyl ketone] | 0.08

Continued, values first:

IC50 [µM] | Compound
0.05 | O=C(O)C[C@H](NC(=O)OCc1ccccc1)C(=O)COC(=O)c1c(Cl)cccc1Cl [Example 38, N-Benzyloxycarbonyl-L-Aspartic Acid 2,6-Dichlorobenzoyloxymethyl Ketone]
0.1 | O=C(O)C[C@H](NC(=O)OCc1ccccc1)C(=O)COc1c(Cl)cccc1Cl [Example 41, N-Benzyloxycarbonyl-L-aspartic acid 2,6-dichlorophenoxymethylketone]
